Laboratory results taken from article PMC3914206.

Key:
Format in all cases: binding
Conditions in all cases: Compound Concentration 10 µM
[1] = target: T1, panel of 442 kinases (Homo sapiens, UniProt O75914)
T1 construct: purchased KINOMEscan
From the text: (§1) We assessed the selectivity of members of this scaffold using the KINOMEscan methodology across a near comprehensive panel of 442 kinases [[18,27]].

[2] = target: T2, panel of 442 kinases (Homo sapiens, UniProt O14920)
T2 construct: purchased KINOMEscan
T2 sequence (O14920 1-756): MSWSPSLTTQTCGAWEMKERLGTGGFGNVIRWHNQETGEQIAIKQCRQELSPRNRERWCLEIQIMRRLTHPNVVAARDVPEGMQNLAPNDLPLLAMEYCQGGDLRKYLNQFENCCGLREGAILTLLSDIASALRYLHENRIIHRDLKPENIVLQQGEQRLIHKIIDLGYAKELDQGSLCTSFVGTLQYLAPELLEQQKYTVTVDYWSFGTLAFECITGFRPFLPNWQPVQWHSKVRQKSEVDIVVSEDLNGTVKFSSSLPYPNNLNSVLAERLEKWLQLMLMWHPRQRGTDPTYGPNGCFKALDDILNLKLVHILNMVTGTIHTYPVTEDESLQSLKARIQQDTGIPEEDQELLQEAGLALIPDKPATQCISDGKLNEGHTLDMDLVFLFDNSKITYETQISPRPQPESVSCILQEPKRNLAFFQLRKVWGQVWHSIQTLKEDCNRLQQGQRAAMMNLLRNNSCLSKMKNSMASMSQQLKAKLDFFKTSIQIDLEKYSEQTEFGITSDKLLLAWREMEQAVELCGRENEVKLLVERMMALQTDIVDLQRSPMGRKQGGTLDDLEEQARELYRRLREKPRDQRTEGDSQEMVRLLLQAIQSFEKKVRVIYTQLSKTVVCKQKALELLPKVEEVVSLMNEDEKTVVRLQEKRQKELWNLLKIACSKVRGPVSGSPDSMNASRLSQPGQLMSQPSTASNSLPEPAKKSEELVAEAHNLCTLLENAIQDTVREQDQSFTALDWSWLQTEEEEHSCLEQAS
From the text: as §1

[3] = target: T3, panel of 442 kinases (Homo sapiens, UniProt P00519, Y253F)
T3 construct: purchased KINOMEscan
From the text: as §1

T1 sequence (O75914 whole entry): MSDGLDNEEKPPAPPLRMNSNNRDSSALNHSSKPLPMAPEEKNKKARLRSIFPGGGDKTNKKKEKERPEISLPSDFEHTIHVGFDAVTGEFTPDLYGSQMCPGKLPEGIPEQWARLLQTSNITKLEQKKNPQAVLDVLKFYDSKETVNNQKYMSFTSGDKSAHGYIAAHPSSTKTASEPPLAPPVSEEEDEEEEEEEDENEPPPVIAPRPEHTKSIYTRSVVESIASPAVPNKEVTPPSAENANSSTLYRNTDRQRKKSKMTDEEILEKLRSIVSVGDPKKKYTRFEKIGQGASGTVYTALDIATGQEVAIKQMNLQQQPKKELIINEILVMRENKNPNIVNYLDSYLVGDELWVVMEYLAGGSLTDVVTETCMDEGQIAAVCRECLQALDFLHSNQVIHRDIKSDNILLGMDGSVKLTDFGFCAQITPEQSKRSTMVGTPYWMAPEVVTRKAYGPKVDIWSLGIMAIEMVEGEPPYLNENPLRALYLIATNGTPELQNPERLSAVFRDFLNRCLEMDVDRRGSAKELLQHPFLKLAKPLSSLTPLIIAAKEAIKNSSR

Row | Structure (SMILES) | KINOMEscan: PAK3 [1] | KINOMEscan: IKK-beta [2] | KINOMEscan: ABL1(Y253F)-phosphorylated [3]
1 | COc1cc(C(=O)N2CCC(N3CCN(C)CC3)CC2)ccc1Nc1ncc2c(n1)N(C)c1ccccc1C(=O)N2C [15 (LRRK2-IN-1)] | 83 | 89 | 89
2 | COc1cc(C(=O)N2CCC(N3CCN(C)CC3)CC2)ccc1Nc1ncc2c(n1)N1CCc3cccc(c31)C(=O)N2C [Compound 24] | 80 |  | 
3 | COc1cc(C(=O)N2CCC(N3CCN(C)CC3)CC2)ccc1Nc1ncc2c(n1)N(C1CCCC1)c1ccccc1C(=O)N2C [Compound 25, 11-cyclopentyl-2-((2-methoxy-4-(4-(4-methylpiperazin-1-yl)piperidine-1-carbonyl)phenyl)amino)-5-methyl-5H-benzo[e]pyrimido[5,4-b][1,4]diazepin-6(11H)-one] | 69 | 100 | 60
4 | CCOc1cc(C(=O)N2CCC(N3CCN(C)CC3)CC2)ccc1Nc1ncc2c(n1)N(C1CCCC1)c1ccccc1C(=O)N2C [Compound 26] | 95 | 99 | 100
